Measurements: patent publication US9834542B2, “LXR modulators” (BRISTOL-MYERS SQUIBB COMPANY, priority 2013, dated 2017)

Target: T1, LXRβ (Homo sapiens, UniProt P55055)
T1 construct: Co-transfection expression plasmids, comprising full-length LXRα (pCMX-h LXRα[…] or LXRβ (pCMX-hLXRβ)); expressed in transfected cells; host or cells: CV-1 African Green Monkey Kidney Cells
T1 sequence (P55055 1-460): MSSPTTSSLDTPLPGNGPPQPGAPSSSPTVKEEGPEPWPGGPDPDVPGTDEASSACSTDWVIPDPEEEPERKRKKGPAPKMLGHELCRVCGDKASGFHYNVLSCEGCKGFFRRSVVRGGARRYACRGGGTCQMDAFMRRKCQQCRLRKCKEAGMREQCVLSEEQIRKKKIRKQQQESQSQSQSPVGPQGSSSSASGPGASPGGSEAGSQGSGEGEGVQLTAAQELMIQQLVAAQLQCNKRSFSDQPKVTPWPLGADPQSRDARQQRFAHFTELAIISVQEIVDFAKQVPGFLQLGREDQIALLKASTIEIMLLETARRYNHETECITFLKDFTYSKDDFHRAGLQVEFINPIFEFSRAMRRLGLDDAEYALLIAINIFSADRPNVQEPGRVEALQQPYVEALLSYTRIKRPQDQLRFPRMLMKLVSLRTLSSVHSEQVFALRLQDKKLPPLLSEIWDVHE
T1 sequence (P19793 1-462 partner): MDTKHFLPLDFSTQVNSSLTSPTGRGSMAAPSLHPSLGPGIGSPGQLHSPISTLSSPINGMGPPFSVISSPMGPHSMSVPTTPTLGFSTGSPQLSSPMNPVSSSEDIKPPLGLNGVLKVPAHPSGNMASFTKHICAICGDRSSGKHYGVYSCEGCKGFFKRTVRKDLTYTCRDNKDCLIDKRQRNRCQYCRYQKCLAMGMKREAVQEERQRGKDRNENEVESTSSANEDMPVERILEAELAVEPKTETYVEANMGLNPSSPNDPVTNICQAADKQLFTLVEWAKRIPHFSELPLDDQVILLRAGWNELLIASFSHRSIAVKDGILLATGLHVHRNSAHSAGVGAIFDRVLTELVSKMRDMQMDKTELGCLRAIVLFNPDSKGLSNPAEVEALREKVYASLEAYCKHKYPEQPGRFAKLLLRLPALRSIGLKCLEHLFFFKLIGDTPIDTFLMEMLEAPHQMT
Experiment: Co-transfection assay (LXRE luciferase reporter), LXRβ
Type: cell-based
Details: for EC50: CV-1 cells transfected with pCMX-hLXRβ and LXREx1-Tk-Luciferase, 20 hours incubation; for Emax: LXRβ co-transfection, relative to high control 1-(2,4-difluorobenzyl)-2-oxo-6-(4-phenoxyphenyl)-4-(trifluoromethyl)-1,2-dihydropyridine-3-carbonitrile, read-out: % Efficacy
How it was run: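 Cell-based LXRβ agonism measured as LXRE-luciferase induction in transiently transfected CV-1 cells after 20 h treatment. Potency is the curve-fit EC50; efficacy is expressed as percent of a full-agonist control's maximal response.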

Compound	EC50	Emax
CCC(F)(F)c1cn(-c2ccc(-c3cccc(S(=O)(=O)NC)c3)cc2-n2nncc2-c2ccc(OC(F)(F)F)cc2)c(C)n1 [Example 185, 4′-[4-(1,1-difluoropropyl)-2-methyl-1H-imidazol-1-yl]-N-methyl-3′-(5-{4-[(trifluoromethyl)oxy]phenyl}-1H-1,2,3-triazol-1-yl)biphenyl-3-sulfonamide]	297 nM	77%
CCOc1ncc(-c2oc(C)nc2-c2cc(-c3cccc(S(C)(=O)=O)c3)ccc2-n2cc(C(F)(F)F)nc2C)cc1F [Example 471, 5-(6-ethoxy-5-fluoropyridin-3-yl)-2-methyl-4-(4-(2-methyl-4-(trifluoromethyl)-1H-imidazol-1-yl)-3′-(methylsulfonyl)biphenyl-3-yl)oxazole]	201 nM	45%
Cc1nc(-c2cc(-c3cc(F)cc(S(C)(=O)=O)c3)ccc2-n2cc(C(F)(F)F)nc2C)c(-c2ccc(OC(F)F)c(F)c2)o1 [Example 462]	233 nM	73%
CNS(=O)(=O)c1cccc(-c2ccc(-n3cc(C(F)F)nc3C)c(-c3cnnn3Cc3ccc(Cl)cc3)c2)c1 [Example 246, 3′-(1-(4-chlorobenzyl)-1H-1,2,3-triazol-5-yl)-4′-(4-(difluoromethyl)-2-methyl-1H-imidazol-1-yl)-N-methyl-[1,1′-biphenyl]-3-sulfonamide]	475 nM	91%
Cc1nc(C(F)(F)F)cn1-c1ccc(-c2cc(F)c(CO)c(S(C)(=O)=O)c2)cc1-c1ccnn1-c1ccc(Cl)cc1 [Example 288, {3′-[1-(4-chlorophenyl)-1H-pyrazol-5-yl]-3-fluoro-5-(methylsulfonyl)-4′-[2-methyl-4-(trifluoromethyl)-1H-imidazol-1-yl]biphenyl-4-yl}methanol]	74 nM	81%
Cc1nc(C(F)F)cn1-c1ccc(-c2cc(F)c(CO)c(S(C)(=O)=O)c2)cc1-n1nncc1C(C)c1ccc(Cl)cc1 (stereo not shown) [Example 134, [3′-{5-[1-(4-chlorophenyl)ethyl]-1H-1,2,3-triazol-1-yl}-4′-[4-(difluoromethyl)-2-methyl-1H-imidazol-1-yl]-3-fluoro-5-(methylsulfonyl)biphenyl-4-yl]methanol]	166 nM	68%
CCCc1nc(-c2cc(-c3ccc(CO)c(S(C)(=O)=O)c3)ccc2-n2cc(C(F)(F)F)nc2C)c(-c2ccc(OC(F)(F)F)cc2)o1 [Example 558, (4′-(2-methyl-4-(trifluoromethyl)-1H-imidazol-1-yl)-3-(methylsulfonyl)-3′-(2-propyl-5-(4-(trifluoromethoxy)phenyl)oxazol-4-yl)-[1,1′-biphenyl]-4-yl)methanol]	10 nM	82%
Cc1nc(C(F)(F)F)cn1-c1ccc(-c2cccc(S(C)(=O)=O)c2)cc1-n1nncc1-c1ccc(OC(F)(F)C(F)F)cc1 [Example 23, 1-{3′-(methylsulfonyl)-4-[2-methyl-4-(trifluoromethyl)-1H-imidazol-1-yl]biphenyl-3-yl}-5-{4-[(1,1,2,2-tetrafluoroethyl)oxy]phenyl}-1H-1,2,3-triazole]	507 nM	101%
Cc1nc(-c2cc(-c3cccc(S(C)(=O)=O)c3)ccc2-n2cc(C(F)(F)F)nc2C)c(-c2ccc(Cl)c(Cl)c2)o1 [Example 508, 5-(3,4-dichlorophenyl)-2-methyl-4-(4-(2-methyl-4-(trifluoromethyl)-1H-imidazol-1-yl)-3′-(methylsulfonyl)biphenyl-3-yl)oxazole]	82 nM	68%
Cc1nc(-c2cc(-c3cccc(S(C)(=O)=O)c3)ccc2-n2cc(C(F)(F)F)nc2C)c(-c2ccc(F)c(Cl)c2)o1 [Example 510, 5-(3-chloro-4-fluorophenyl)-2-methyl-4-(4-(2-methyl-4-(trifluoromethyl)-1H-imidazol-1-yl)-3′-(methylsulfonyl)biphenyl-3-yl)oxazole]	61 nM	76%
Cc1nc(-c2cc(-c3cccc(S(=O)(=O)C4CC4)c3)ccc2-n2cc(C(F)(F)F)nc2C)c(-c2ccc3c(c2)OC(F)(F)O3)o1 [Example 416]	30 nM	76%
